Experimental findings from US7851487B2, “Use of tetrahydropyridines in the treatment of central nervous system disorders” (The Research Foundation of State University of New York, priority 2006, dated 2010) are described below.

SMILES strings stand for the structures.

For orientation: IC50 means the point on the concentration scale where inhibition reaches its midpoint. Broadly, the Ki is a dissociation constant, usually derived from enzyme kinetics or from competition with a known ligand. What is called inhibition is the share of the control response that was lost under treatment.

For one experiment, the target named is T1, Dopamine D4.2 (Homo sapiens, UniProt P21917, DEL265-296).
T1 construct: host or cells: CHO-K1 cells
T1 sequence (P21917 with tags, fused parts or gaps DEL265-296): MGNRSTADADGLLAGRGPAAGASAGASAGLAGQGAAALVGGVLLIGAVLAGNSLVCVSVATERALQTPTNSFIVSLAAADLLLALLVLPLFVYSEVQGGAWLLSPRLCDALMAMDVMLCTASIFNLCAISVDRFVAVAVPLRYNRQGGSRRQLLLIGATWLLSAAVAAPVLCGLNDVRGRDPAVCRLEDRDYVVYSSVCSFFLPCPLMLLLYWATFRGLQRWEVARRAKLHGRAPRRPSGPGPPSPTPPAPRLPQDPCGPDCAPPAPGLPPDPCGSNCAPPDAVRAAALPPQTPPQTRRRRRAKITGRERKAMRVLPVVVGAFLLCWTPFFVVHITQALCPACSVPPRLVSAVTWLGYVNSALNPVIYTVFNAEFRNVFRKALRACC
The experiment can be described thus: Radioligand binding, Dopamine D4.2 ([3H]Spiperone). The method, then: (§1) The assays utilized human neuroreceptors and were performed under the experimental parameters set forth in Table 2 using standard techniques.
(§2) For Table 3, IC50 values were determined by non-linear, least squares regression analysis using Data Analysis Toolbox™ (MDL Information Systems, San Leandro, Calif., USA). Inhibition constants (KI) were calculated using the equation of Cheng and Prusoff (Cheng, Y., et al. Biochem. Pharmacol. 22:3099-3108, 1973) using the observed IC50 of the tested compound, the concentration of radioligand employed in the assay, and the values for the KD of the ligand. The Hill coefficient (nH), defining the slope of the competitive binding curve, was calculated using the Data Analysis Toolbox™. Biochemical assay results are presented as the percent inhibition of specific binding or activity unless indicated otherwise. The experiments summarized in Table 3 utilized human dopamine D1, D2 s, D21, D3, D4.2, D4.4, serotonin 5HT1A, 5HT2A, 5HT2C, 5HT6, 5HT7, dopamine transporter (DAT), serotonin transporter (SERT) and the norepinephrine transporter (NET), as indicated in Table 3.

A further experiment deals with T2, Serotonin 5HT2A (Homo sapiens, UniProt P28223).
T2 construct: host or cells: CHO-K1 cells
The experiment can be described thus: Radioligand binding, Serotonin 5HT2A ([3H]Ketanserin). As for the experimental part:
as §1, §2

The target in experiment [1] is T3, Norepinephrine transporter (NET) (Homo sapiens, UniProt P23975).
T3 construct: host or cells: MDCK cells
The experiment can be described thus: Radioligand binding, Norepinephrine transporter (NET) ([125I]RTI-55). As for the experimental part:
as §1, §2

The test system of the next experiment is ckr mouse. The experiment is described as follows: Motor activity in chakragati (ckr) mice. Type of experiment: in vivo. Conditions: 10 mg/kg intraperitoneal, 20 minutes after injection, monitored 15 minutes. The method, then:
The mouse also presents lateral ventricular enlargement, which may mirror neuropathological observations in shizophrenia. […] We have further validated this model by testing risperidone, clozapine, haloperidol and pimozide in the ckr mouse. The behavioral output was assayed by measuring the rate of hyperactivity and circling after administration.
A stock solution of compound 2 was dissolved in DMSO, and then diluted to 10 mg/10 ml with distilled water such that the final concentration of DMSO was 0.5%. Each animal received 10 mg/kg of the test drug in a volume of 0.1 ml per 10 g. Additional drugs were tested in parallel in a similar manner.
Twenty ckr mice (male and female, 3 months old) were randomly assigned to receive the test drug (compound 2) or 0.5% DMSO vehicle. The drug was tested in 5 mice. Each treatment was separated by a minimum washout period of 3 days. On the day of testing, mice were brought into the behavioral test room and allowed to acclimatize for at least 1 hour. They then received intraperitoneal injections of the 0.1 ml/10 g (10 mg/kg) of the test drug solution or vehicle. They were returned to their cage and 20 minutes later they were placed in a 190 mm diameter, 300 mm deep circular recording chamber. […] The mice were monitored with an overhead video camera for 15 minutes. […] The total distance moved, the velocity of movement, and the time spent moving were calculated. […]

T2 sequence (P28223 whole entry): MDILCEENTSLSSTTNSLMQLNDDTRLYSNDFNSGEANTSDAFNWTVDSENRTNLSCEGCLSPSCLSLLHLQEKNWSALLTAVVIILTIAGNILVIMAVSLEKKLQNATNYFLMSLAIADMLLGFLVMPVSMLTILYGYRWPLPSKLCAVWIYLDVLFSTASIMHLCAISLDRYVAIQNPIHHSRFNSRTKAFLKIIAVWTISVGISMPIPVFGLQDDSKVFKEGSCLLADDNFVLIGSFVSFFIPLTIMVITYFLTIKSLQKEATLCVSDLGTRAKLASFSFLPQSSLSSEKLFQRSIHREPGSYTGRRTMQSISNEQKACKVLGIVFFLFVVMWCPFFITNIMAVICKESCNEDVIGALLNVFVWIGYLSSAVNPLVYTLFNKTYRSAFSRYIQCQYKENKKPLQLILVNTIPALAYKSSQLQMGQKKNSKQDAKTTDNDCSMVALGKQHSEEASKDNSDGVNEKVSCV
T3 sequence (P23975 whole entry): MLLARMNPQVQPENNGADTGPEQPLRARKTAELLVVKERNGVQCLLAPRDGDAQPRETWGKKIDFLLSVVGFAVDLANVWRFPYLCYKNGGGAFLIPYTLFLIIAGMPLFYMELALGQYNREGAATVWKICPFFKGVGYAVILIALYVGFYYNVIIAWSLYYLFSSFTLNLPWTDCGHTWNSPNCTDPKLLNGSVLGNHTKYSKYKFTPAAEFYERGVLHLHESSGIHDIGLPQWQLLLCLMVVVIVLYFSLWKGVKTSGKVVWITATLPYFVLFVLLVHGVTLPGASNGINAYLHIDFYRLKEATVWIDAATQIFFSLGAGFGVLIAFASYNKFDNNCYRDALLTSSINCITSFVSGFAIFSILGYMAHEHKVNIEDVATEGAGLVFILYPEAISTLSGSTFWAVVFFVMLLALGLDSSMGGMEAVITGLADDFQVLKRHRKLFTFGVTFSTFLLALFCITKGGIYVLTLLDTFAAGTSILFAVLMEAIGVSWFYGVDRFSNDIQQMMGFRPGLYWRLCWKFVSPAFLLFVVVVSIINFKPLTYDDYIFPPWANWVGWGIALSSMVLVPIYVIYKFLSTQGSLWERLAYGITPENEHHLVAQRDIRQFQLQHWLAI

Take `COC(=O)[C@@H](c1ccc(-c2ccccc2)cc1)[C@H]1C=CCCN1` [Compound 2]: the IC50 came to 50.5 µM on Dopamine D4.2, 0.797 µM on Serotonin 5HT2A and 10 µM in experiment [1]. Further, the figures for the Ki (on Dopamine D4.2; at Serotonin 5HT2A; in experiment [1]) were 19.7 µM, 0.228 µM and 9.94 µM, respectively. Also, the nH on Dopamine D4.2 (Dopamine D4.2, Hill coefficient) worked out at 1.76; at Serotonin 5HT2A (Serotonin 5HT2A, Hill coefficient), 1.02; in experiment [1] (Norepinephrine transporter (NET), Hill coefficient) it was 1.1. For the same compound, the “Percentage Inhibition” value at Dopamine D4.2 (Dopamine D4.2, concentration 100 (unit not given)) was 79%. For the same compound, at Serotonin 5HT2A (Serotonin 5HT2A, 1 μM, read-out: Percentage Inhibition), the inhibition at 1 µM came out at 61%. The inhibition at 10 µM on Serotonin 5HT2A (Serotonin 5HT2A, 10 μM, read-out: Percentage Inhibition) stood at 94%; in experiment [1] (Norepinephrine transporter (NET), 10 μM, read-out: Percentage Inhibition) it was 51%. The time spent moving entry with ckr mouse was “significantly decreased the time spent moving”. In addition, the velocity of movement result in the experiment on ckr mouse is listed as “trend towards decreased velocity”.
